The target in assay [1] is T1, NUAK family SNF1-like kinase 1 (Homo sapiens) (UniProt O60285).
T1 sequence (whole entry): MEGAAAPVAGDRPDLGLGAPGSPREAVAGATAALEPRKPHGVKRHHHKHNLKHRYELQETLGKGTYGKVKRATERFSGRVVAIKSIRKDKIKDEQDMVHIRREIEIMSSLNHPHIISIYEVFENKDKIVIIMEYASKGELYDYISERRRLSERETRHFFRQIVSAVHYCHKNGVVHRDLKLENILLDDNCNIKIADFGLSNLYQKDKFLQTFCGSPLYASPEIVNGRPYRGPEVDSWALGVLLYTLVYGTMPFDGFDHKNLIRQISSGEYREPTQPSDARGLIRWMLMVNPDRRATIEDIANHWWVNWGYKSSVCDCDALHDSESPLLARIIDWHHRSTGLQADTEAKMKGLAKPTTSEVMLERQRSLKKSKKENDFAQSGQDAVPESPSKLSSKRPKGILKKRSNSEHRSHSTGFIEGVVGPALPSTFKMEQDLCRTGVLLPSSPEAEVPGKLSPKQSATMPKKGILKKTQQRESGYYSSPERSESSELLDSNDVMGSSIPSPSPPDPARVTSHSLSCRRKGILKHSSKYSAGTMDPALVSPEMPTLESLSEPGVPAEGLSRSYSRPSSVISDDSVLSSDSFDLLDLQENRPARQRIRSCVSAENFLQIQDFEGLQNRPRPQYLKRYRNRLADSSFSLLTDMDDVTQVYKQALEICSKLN
As to the kind of experiment: Inhibition of human ARK5 at 500 nM by HotSpot assay relative to control.

Assay [2] concerns the target T2, Testis-specific serine/threonine-protein kinase 1 (Homo sapiens) (UniProt Q9BXA7).
T2 sequence (whole entry): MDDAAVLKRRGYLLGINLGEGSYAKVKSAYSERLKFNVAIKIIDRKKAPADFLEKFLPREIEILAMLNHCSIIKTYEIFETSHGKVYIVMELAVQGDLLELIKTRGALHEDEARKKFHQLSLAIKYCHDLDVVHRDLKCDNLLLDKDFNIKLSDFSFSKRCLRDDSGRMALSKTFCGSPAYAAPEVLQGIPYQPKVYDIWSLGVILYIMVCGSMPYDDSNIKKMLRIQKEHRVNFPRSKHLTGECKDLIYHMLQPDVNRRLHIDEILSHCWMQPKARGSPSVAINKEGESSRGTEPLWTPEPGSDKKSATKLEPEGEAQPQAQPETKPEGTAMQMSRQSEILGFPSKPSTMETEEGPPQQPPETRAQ
Description: Inhibition of human TSSK1 at 500 nM by HotSpot assay relative to control.

The target in assay [3] is Serine/threonine-protein kinase MARK1 (Homo sapiens) (UniProt Q9P0L2). Description: Inhibition of human MARK1 at 500 nM by HotSpot assay relative to control.
Chain of Serine/threonine-protein kinase MARK1 (Homo sapiens) (Q9P0L2 whole entry, looked up, the tested form may be a part): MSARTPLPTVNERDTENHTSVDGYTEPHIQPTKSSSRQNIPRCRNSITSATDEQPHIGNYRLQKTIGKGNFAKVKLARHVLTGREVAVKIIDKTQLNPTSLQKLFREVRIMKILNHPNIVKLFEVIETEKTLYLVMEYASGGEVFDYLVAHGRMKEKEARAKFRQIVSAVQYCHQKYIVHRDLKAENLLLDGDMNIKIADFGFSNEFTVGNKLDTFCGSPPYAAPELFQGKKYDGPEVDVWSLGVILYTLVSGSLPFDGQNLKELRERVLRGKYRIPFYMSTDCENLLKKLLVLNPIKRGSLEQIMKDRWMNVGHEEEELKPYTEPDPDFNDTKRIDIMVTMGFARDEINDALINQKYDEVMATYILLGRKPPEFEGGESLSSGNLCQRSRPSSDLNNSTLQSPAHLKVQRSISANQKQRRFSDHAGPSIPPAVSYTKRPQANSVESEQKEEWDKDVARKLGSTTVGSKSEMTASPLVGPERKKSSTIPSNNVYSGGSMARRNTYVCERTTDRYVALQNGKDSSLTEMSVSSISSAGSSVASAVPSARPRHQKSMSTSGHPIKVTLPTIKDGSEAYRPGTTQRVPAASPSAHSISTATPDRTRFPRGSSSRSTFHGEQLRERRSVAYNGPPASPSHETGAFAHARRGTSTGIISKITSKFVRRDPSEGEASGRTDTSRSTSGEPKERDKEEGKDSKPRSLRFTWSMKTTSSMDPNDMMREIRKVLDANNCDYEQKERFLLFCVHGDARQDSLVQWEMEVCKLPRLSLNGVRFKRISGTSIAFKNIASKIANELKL
Assay [4] in a line: Inhibition of inactive form of human Insulin receptor (978 to 1283 residues) C981S mutant kinase domain expressed in baculovirus infected Sf9 cells incubated for 1 hr by [gamma-33P]ATP assay.
Assay [5] deals with T3, Serine/threonine-protein kinase BRSK2 (Homo sapiens) (UniProt Q8IWQ3).
T3 sequence (whole entry): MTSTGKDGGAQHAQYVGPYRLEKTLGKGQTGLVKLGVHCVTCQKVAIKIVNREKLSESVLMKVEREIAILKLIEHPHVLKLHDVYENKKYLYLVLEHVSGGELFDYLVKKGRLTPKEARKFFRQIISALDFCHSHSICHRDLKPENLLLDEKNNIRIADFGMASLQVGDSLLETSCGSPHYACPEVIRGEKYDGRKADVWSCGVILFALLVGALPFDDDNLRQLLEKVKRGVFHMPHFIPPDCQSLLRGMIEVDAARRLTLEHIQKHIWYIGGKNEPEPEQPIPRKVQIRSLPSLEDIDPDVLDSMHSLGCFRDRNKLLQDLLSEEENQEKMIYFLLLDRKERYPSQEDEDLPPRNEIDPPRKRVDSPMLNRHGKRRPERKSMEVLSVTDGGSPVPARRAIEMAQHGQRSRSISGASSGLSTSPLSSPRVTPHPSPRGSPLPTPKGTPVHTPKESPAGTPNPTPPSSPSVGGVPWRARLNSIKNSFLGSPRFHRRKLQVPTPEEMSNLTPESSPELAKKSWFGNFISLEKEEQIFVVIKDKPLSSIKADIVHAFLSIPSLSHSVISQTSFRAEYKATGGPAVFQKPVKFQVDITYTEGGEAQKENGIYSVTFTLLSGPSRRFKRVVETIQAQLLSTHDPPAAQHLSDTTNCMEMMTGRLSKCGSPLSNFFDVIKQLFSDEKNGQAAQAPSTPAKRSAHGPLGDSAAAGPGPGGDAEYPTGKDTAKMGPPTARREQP
Description: Inhibition of human BRSK2 at 500 nM by HotSpot assay relative to control.

Assay [6] addresses MAP kinase-activated protein kinase 5 (Homo sapiens) (UniProt Q8IW41). As to the kind of experiment: Inhibition of human MAPKAPK5 at 500 nM by HotSpot assay relative to control.
Assay [7] concerns the target T4, Cytoplasmic tyrosine-protein kinase BMX (Homo sapiens) (UniProt P51813).
T4 sequence (whole entry): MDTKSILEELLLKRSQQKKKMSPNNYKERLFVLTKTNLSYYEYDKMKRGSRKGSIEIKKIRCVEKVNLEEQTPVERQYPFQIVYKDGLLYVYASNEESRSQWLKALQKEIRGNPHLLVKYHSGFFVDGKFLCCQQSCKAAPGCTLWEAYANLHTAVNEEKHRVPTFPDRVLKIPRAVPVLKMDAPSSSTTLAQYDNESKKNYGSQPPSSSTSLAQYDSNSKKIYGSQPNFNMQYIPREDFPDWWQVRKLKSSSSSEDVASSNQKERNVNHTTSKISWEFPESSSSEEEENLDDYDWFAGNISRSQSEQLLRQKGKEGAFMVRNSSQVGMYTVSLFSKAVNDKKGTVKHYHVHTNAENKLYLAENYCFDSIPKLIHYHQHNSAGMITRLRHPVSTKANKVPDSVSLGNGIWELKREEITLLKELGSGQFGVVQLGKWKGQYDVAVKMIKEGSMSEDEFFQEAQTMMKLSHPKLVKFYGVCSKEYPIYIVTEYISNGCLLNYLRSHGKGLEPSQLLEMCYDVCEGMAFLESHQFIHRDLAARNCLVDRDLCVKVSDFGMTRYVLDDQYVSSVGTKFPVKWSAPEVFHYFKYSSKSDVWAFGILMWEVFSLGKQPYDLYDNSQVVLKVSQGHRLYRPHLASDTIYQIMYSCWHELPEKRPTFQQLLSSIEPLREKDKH
As to the kind of experiment: Inhibition of human BMX at 500 nM by HotSpot assay relative to control.

Assay [8] concerns the target Fibroblast growth factor receptor 2 (Homo sapiens) (UniProt P21802). As to the kind of experiment: Inhibition of human FGFR2 at 500 nM by HotSpot assay relative to control.
Assay [9] concerns the target Cyclin-dependent kinase 2/cyclin E1 (Homo sapiens) (UniProt P24864+P24941). As to the kind of experiment: Inhibition of human CDK2/cyclin E at 500 nM by HotSpot assay relative to control. In kind it is protein-complex assay.
Assay [10] deals with Serine/threonine-protein kinase N1 (Homo sapiens) (UniProt Q16512). Description: Inhibition of human PRK1 at 500 nM by HotSpot assay relative to control.
Chain of Serine/threonine-protein kinase N1 (Homo sapiens) (Q16512 2-942 limits assumed): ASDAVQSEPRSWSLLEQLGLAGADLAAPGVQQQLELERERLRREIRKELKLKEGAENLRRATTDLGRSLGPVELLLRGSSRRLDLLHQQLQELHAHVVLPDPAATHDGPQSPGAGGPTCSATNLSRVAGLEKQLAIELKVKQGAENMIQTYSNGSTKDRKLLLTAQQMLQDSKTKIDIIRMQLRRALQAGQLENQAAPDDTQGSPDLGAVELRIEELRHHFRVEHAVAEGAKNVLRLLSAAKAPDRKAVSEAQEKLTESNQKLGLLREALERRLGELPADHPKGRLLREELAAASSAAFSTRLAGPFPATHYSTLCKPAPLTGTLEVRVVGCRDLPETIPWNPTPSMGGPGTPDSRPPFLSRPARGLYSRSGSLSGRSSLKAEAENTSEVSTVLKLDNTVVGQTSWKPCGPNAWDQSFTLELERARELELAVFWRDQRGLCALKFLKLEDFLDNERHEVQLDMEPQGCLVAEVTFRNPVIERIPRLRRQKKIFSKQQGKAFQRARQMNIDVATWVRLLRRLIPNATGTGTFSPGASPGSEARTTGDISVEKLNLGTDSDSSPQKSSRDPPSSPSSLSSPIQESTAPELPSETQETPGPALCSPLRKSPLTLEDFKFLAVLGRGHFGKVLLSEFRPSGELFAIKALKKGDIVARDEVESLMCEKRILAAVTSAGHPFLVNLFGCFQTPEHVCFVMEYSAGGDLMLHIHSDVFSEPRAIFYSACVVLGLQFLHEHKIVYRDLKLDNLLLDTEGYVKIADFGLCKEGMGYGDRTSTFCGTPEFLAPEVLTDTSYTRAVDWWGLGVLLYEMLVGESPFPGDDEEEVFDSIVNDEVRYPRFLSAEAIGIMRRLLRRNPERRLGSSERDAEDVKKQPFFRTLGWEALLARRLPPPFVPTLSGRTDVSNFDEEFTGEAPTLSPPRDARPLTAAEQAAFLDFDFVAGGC

This passage reports inhibition and IC50 results from ChEMBL document CHEMBL5653615 (J Biol Chem, 2013).

Chain of MAP kinase-activated protein kinase 5 (Homo sapiens) (Q8IW41 whole entry): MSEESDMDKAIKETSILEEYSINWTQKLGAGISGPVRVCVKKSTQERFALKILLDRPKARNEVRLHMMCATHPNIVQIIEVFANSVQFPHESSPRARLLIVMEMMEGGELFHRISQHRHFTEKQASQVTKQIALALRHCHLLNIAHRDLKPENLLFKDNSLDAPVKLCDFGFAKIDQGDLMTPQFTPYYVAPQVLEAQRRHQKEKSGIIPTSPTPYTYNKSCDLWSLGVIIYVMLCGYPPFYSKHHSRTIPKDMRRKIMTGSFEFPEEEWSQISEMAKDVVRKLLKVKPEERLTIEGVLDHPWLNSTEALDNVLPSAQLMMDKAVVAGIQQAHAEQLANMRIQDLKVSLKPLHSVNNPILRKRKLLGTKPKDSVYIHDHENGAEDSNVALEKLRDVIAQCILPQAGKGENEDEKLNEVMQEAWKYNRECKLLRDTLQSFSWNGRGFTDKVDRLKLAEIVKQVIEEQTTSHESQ
Chain of Fibroblast growth factor receptor 2 (Homo sapiens) (P21802 22-821 limits assumed): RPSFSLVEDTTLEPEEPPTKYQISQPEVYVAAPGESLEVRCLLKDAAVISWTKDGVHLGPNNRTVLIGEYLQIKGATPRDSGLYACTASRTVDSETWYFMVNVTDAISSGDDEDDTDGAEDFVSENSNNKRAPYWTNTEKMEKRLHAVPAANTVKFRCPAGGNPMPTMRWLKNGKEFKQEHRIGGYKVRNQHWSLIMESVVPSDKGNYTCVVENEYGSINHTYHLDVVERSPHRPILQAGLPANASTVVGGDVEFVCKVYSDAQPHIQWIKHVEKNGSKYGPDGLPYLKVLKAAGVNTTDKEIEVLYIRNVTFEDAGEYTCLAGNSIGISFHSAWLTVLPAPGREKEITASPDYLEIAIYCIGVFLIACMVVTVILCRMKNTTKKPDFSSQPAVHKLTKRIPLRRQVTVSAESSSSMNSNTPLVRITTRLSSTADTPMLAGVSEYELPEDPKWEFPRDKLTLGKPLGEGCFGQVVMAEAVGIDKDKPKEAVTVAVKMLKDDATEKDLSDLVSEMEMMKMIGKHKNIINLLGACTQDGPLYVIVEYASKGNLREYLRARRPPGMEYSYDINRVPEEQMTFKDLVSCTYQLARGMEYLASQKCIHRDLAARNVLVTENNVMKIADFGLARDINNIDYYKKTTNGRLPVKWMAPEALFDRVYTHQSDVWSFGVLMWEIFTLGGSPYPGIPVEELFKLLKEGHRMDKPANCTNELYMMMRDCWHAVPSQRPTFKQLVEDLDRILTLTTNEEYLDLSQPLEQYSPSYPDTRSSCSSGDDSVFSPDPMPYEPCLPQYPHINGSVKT

As usually defined, the inhibition is the drop in the measured response relative to a control, in per cent. The term IC50 denotes the midpoint of a concentration-inhibition curve. Turning to `Nc1n[nH]c2nnc(-c3c(-c4ccccc4)nn4ccccc34)cc12`, the inhibition in assay [1] is 7.47%; in [2], -1.56%; in [3], 2.04%; in assay [5] it was 3.92%; in assay [6], 2.31%; in assay [7] it was 15.6%. The inhibition was -1.79% in [8], -0.67% in assay [9] and 1.8% in assay [10]. It took 5.4 µM to reach half-maximal inhibition in assay [4] (IC50).

On to `Oc1n[nH]c2nnc(-c3c(-c4ccccc4)nn4ccccc34)cc12`, for which the inhibition in assay [1] was 1.9%; in assay [2], -0.04%; in [3], 4.47%; in assay [5], 1.23%; in assay [6], 4.74%; in [7], 6.43%. The inhibition is -0.03% in assay [8], 0.01% in assay [9] and -0.85% in assay [10]. The IC50 in assay [4] is 1.8 µM.
